Measured values from patent US10155936B2, “Parkin ligase activation methods and compositions” (An2H Discovery Limited, priority 2014, dated 2018).

Experiments:
Parkin ligase [1] = target: T1, Parkin ligase (Homo sapiens, UniProt O60260); assay: Activity-based probe assay using a ubiquitin vinyl sulfone probe (TR-FRET); assay type: biochemical; details: heat activated Parkin, HA-Ub-VS probe, TR-FRET signal; FIG. 1, FIG. 2
T1 construct: Enzyme: Parkin-His tagged 203 μM (10.5 mg/ml)
T1 sequence (O60260 1-465): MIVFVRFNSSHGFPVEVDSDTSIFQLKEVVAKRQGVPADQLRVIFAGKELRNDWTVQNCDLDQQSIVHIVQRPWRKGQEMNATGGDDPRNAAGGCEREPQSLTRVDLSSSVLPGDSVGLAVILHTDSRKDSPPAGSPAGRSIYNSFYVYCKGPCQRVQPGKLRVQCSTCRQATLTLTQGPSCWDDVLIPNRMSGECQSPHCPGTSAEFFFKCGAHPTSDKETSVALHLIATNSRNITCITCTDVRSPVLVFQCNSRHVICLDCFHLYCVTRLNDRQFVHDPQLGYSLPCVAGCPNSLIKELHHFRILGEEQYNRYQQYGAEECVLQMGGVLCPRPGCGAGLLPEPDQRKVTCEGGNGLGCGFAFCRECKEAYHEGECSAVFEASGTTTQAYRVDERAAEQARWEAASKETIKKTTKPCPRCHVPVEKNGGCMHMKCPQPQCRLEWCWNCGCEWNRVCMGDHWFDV
Method: A Ubiquitin vinyl sulfone probe can be used that irreversibly binds to the active site cysteine of Parkin ligase. Covalent attachment of the probe to the Parkin can be monitored by TR-FRET. Candidate activator compounds can be identified by increasing the activity of Parkin ligase due to an increase in TR-FRET signal. Screening for activating compounds can be distinguished from the controls as follows: • 100% activation signal=Heat activated Parkin+100 nM control activator in DMSO. 0% activation signal=Heat activated Parkin+DMSO only. Parkin activators can be identified by an increase of the 0% activation signal TR-FRET signal. […]
(§1) Data Analysis: The Data can be read in CSV files. […]

Parkin ligase [2] = target: T2, Parkin ligase (Homo sapiens, UniProt O60260); assay: Parkin pUB auto-ubiquitinylation assay (TR-FRET); assay type: biochemical; details: for Parkin activity in an auto-ubiquitination assay: pUb activated Parkin, E1-E2 cascade, TR-FRET signal, FIG. 3, FIG. 5
T2 construct: Enzyme 3: Parkin-His tagged 203 μM (10.5 mg/ml) Supplied by An2H
Description: A Parkin pUB Auto-ubiquitinylation Assay is used to evaluate a candidate compound's potency to activate Parkin's ability to Auto-ubiquitinylate itself.
The principle of this assay is that the E3 Ligase Parkin catalyzes the transfer of Ubiquitin to target proteins, but also has the ability to auto-ubiquitinylate itself. The phospho-Ubiquition (pUb) added to the assay alters the Parkin to a state where small molecule activators can enable the Parkin to auto-ubiquitinylate though the E1-E2 cascade reaction. The use of a Eu cryptate Ubiquition and anti 6His-d2 that binds to the His tagged Parkin will give a signal when the Eu cryptate Ubiquition is auto-ubiquitinylate onto the Parkin which can be monitored by TR-FRET.
Similar to the Activity-based probe assay in Examples 2 and 3, screening for activating compounds can be distinguished from the controls as follows: • 100% activation signal=pUb activated Parkin+40 nM control activator in DMSO. • 0% activation signal=pUb activated Parkin+DMSO only. • Parkin activators can be identified by an increase of the 0% activation signal TR-FRET signal. […]
Assay Procedure: • 1) Load assay plate wells with 4.9 μl 400.0 nM Parkin, 800 nM pUb in reaction buffer by use of Bravo. • 2) Deliver 0.1 μl 100× activator candidates in DMSO by use of HP D-300 compound dispenser. […] Add each compound and control in duplicate wells. • 3) Spin 1000 rpm, 2 minutes, at room temp. • 4) Incubate plate for 15 minutes at room temp. • 5) Add 5 μl 10 nM E1, 100 nM E2, 17.6 nM Ubiquitin Eu and 2 mM ATP in Reaction Buffer by use of Bravo. • 6) Spin 1000 rpm, 2 minutes, at room temp. • 7) Incubate plate for 120 minutes at room temp. • 8) Add 10 μl 13.4 nM anti his d2 in detection buffer by use of Bravo. • 9) Spin 1000 rpm, 2 minutes, at room temp. • 10) Incubate plate for 60 minutes at room temp. • 11) Read plates on Perkin Elmer Envision instrument.
as §1

Parkin ligase [3] = target: T1, Parkin ligase; assay: Tandem mass spectrometry of Parkin ligase incubated with compound, after proteolytic digestion; assay type: binding; details: tandem mass spectrometry of proteolytic fragments
Method: Parkin ligase was incubated with AH007 compound, and the mixture was then subject to tandem mass spectometry analysis after proteolytic digestion to produce fragments of Parkin ligase. […] Compound An2H07 is also fragmented when analyzed by mass spectrometry. Therefore, characteristic pieces of the compound AH007 that are attached to specific residues of Parkin can also be identified. These fragments were characterized for alterations in fragment size indicative of bound small molecule of the predicted molecular weight of AH007. The mass spectrometry data identified three specific fragments of AH007 at two specific residues of Parkin ligase. The data identified a fragment of 253.08-256.09 of AH007 compound attached to cysteine residue 377 of Parkin ligase (C377) and a fragment of 343.14-346.14 of AH007 compound attached to C377. The data also identified a fragment of 253.08-256.09 of AH007 compound attached to cysteine residue 59 of Parkin ligase (C59). […] It is also believed that at least C377 is included in ZnF domains of human Parkin Ligase, and thus accords with the theory that cysteine residues in the flexible Parkin ligase ZnF domains are vulnerable for attachment and/or interruption by small molecule candidates. Peptide fragments of Parkin comprising C59 and/or C377 will be useful to design further binding assays and selection of additional modulating agents.

| Parkin Ligase reaction with the Activity-based Ubiquitin vinyl sulfone probe (Parkin ligase [1]) | Parkin activity in an auto-ubiquitination assay (Parkin ligase [2]) | SMILES | binding residues of Parkin ligase for the compound (Parkin ligase [3]) | parkin activation in an auto-ubiquitination assay, compound with pUB (Parkin ligase [2]; compound together with pUB, FIGS. 4A and 4B) |
| --- | --- | --- | --- | --- |
| increases the Parkin Ligase reaction | increases Parkin activity | Cc1nc2c(-c3ccccc3)c(C)nn2c(S)c1Cc1ccccc1 [AH007, 6-benzyl-2,5-dimethyl-3-phenylpyrazolo[1,5-a]pyrimidine-7-thiol] | binds and/or attaches to two specific sites in Parkin ligase: C59 and C377 |  |
| increases the Parkin Ligase reaction | increases Parkin activity | O=C(Nc1nc(NC(=O)c2ccccc2)n(-c2ccccc2)n1)c1ccccc1 [AH001, N,N′-(1-phenyl-1H-1,2,4-triazole-3,5-diyl)dibenzamide] |  | synergistically increases parkin activation |
